Measured values taken from US11091497B2, “Pyrano[3,4-b]pyrazine kappa opioid receptor ligands for treating addiction, pruritus, pain, and inflammation” (The Rockefeller University, priority 2017, dated 2021).
Read-outs that look alike come from different tables or passages of the source.

How the values were obtained:
[1] = target: T1, kappa opioid receptor (PathHunter U2OS hOPRK1 membranes) (Homo sapiens, UniProt P41145); experiment: Tritiated U69,593 binding for KOP-R membranes
T1 construct: host or cells: U2OS (PathHunter U2OS hOPRK1 β-arrestin cell line)
T1 sequence (P41145 whole entry): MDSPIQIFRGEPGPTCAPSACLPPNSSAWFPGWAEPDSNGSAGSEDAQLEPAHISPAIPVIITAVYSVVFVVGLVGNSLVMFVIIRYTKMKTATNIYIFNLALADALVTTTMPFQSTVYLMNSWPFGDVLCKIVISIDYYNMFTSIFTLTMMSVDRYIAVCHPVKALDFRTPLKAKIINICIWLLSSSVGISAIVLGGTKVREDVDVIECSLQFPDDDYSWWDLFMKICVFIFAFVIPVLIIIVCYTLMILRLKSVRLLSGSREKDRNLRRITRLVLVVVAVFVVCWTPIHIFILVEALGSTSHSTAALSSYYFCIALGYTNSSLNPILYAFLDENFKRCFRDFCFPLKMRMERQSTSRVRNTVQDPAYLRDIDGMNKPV
Method: Tritiated U69,593 binding for KOP-R membranes; tritiated DAMGO binding for MOP-R membranes; and tritiated DPDPE binding for DOP-R membranes:
(§1) Membranes from cells stably expressing kappa, mu or delta opioid receptor constructs (PathHunter U2OS hOPRK1, CHO-K1 rOPRM1 and CHO-K1 OPRD1 β-arrestin cell line, DiscoverX, Fremont, Calif., USA) were used. Cells were scraped from tissue culture plates, homogenized with a tissue tearor homogenizer in membrane buffer (10 mM Tris, 100 mM NaCl, and 1 mM EDTA; pH 7.4), and centrifuged at 20,000 g for 30 minutes at 4° C. and frozen at −80° C. until use. Prior to use, the pellets were resuspended in binding buffer (50 mm Tris, 100 mm NaCl, pH 7.4), homogenized with a dounce homogenizer and […] incubated with 1.0 nM of the appropriate tritiated ligand ([^3H]U69,593, [^3H]DAMGO or [^3H]DPDPE for kappa, mu or delta binding, respectively) and the appropriate concentration of compound for 60 minutes at 30° C. Membranes with bound tritiated ligand were collected on Whatman GF/B filter paper (Brandel, Gaithersburg, Md., USA) utilizing a Brandel harvester. Bound tritiated ligand was quantified using a TriCarb-2900TR scintillation counter (Packard, Downers Grove, Ill., USA) following addition of 4 ml ReadySafe scintillation fluid (Beckman Coulter, Indianapolis, Ind., USA). Compiled data for each compound was normalized to the maximal binding in the absence of compound, with non-specific binding subtracted. Curve fitting was done in Microcal Origin 17.0 software using logistic sigmoidal fit, to determine IC50. GTPgammaS Membranes from U2OS cells stably expressing human kappa opioid receptors were used. Cells were scraped from tissue culture plates, homogenized with a tissue tearor homogenizer in membrane buffer (10 mM Tris, 100 mM NaCl, and 1 mM EDTA; pH 7.4), and centrifuged at 20,000 g for 30 minutes at 4° C. and frozen at −80° C. until use. Prior to use, the pellets were resuspended in assay buffer (50 mm Tris, 100 mm NaCl, 5 mM MgCl2, and 1 mM EDTA; pH 7.4) and homogenized with a dounce homogenizer and 50 μg incubated with 0.1 nM [35 S]GTPγS, 10 nM GDP, and the appropriate concentration of agonist for 20 minutes at 30° C. To test inhibition, all samples were incubated with 100 nM U69,593 as well as the appropriate concentration of compound. Membranes with bound [35 S]GTPγS were collected on Whatman GF/B filter paper (Brandel, Gaithersburg, Md., USA) utilizing a Brandel harvester. Bound [35 S]GTPγS was quantified using a TriCarb-2900TR scintillation counter (Packard, Downers Grove, Ill., USA) following addition of 4 mL ReadySafe scintillation fluid (Beckman Coulter, Indianapolis, Ind., USA). […] NA indicates not applicable. For each compound, curve fitting was done in Microcal Origin 17.0 software using logistic sigmoidal fit, to determine EC50 and maximal percent stimulation, which in turn was normalized to the maximal percent stimulation of the test full agonist compound U69,593 to determine % efficacy. β2-Arrestin Experiments were conducted using the PathHunter Detection Kit obtained from DiscoverX. Cells stably expressing kappa, mu or delta opioid receptor constructs (PathHunter U2OS hOPRK1, CHO-K1 rOPRM1 and CHO-K1 OPRD1 β-arrestin cell line, DiscoverX, Fremont, Calif., USA) were plated in 96- or 384-well plates. Cells were stimulated with the compounds for 90 minutes at 37° C. To test inhibition, all samples were incubated with 100 nM U69,593 as well as the appropriate concentration of compound. Cells were then incubated for 60 minutes in the presence of galoctosidase substrate, yielding chemiluminescent product. Chemiluminescence was measured using a Synergy Neo microplate reader (BioTek, Winooski, Vt., USA). Antagonism assays were done in the same manner, in the presence of 300 nM U69,593, 1 μM DAMGO or 1 μM DPDPE for KOP-R, MOP-R or DOP-R assays, respectively. […] NA indicates not applicable. […]

[2] = target: T2, kappa opioid receptor (PathHunter U2OS hOPRK1 β-arrestin cell line) (Homo sapiens, UniProt P41145); experiment: β-arrestin coupling (PathHunter Detection Kit); assay type: cell-based; details: for Emax at 10 µM: U2OS
T2 construct: host or cells: U2OS (PathHunter U2OS hOPRK1 β-arrestin cell line)
T2 sequence (P41145 whole entry): as above
Method: as §1

[3] = target: T3, human kappa opioid receptors (Homo sapiens, UniProt P41145); experiment: [35S]GTPγS stimulation, membranes from U2OS cells; assay type: biochemical; details: for Emax: read-out: GTPγS stimulation % efficacy
T3 construct: expressed in transfected cells; host or cells: U2OS
T3 sequence (P41145 whole entry): as above
Method: Membranes from cells stably expressing kappa, mu or delta opioid receptor constructs (PathHunter U2OS hOPRK1, CHO-K1 rOPRM1 and CHO-K1 OPRD1 β-arrestin cell line, DiscoverX, Fremont, Calif., USA) were used. Cells were scraped from tissue culture plates, homogenized with a tissue tearor homogenizer in membrane buffer (10 mM Tris, 100 mM NaCl, and 1 mM EDTA; pH 7.4), and centrifuged at 20,000 g for 30 minutes at 4° C. and frozen at −80° C. until use. Prior to use, the pellets were resuspended in binding buffer (50 mm Tris, 100 mm NaCl, pH 7.4), homogenized with a dounce homogenizer and […] incubated with 1.0 nM of the appropriate tritiated ligand ([^3H]U69,593, [^3H]DAMGO or [^3H]DPDPE for kappa, mu or delta binding, respectively) and the appropriate concentration of compound for 60 minutes at 30° C. Membranes with bound tritiated ligand were collected on Whatman GF/B filter paper (Brandel, Gaithersburg, Md., USA) utilizing a Brandel harvester. Bound tritiated ligand was quantified using a TriCarb-2900TR scintillation counter (Packard, Downers Grove, Ill., USA) following addition of 4 ml ReadySafe scintillation fluid (Beckman Coulter, Indianapolis, Ind., USA). Compiled data for each compound was normalized to the maximal binding in the absence of compound, with non-specific binding subtracted. Curve fitting was done in Microcal Origin 17.0 software using logistic sigmoidal fit, to determine IC50. GTPgammaS Membranes from U2OS cells stably expressing human kappa opioid receptors were used. Cells were scraped from tissue culture plates, homogenized with a tissue tearor homogenizer in membrane buffer (10 mM Tris, 100 mM NaCl, and 1 mM EDTA; pH 7.4), and centrifuged at 20,000 g for 30 minutes at 4° C. and frozen at −80° C. until use. Prior to use, the pellets were resuspended in assay buffer (50 mm Tris, 100 mm NaCl, 5 mM MgCl2, and 1 mM EDTA; pH 7.4) and homogenized with a dounce homogenizer and 50 μg incubated with 0.1 nM [35 S]GTPγS, 10 nM GDP, and the appropriate concentration of agonist for 20 minutes at 30° C. To test inhibition, all samples were incubated with 100 nM U69,593 as well as the appropriate concentration of compound. Membranes with bound [35 S]GTPγS were collected on Whatman GF/B filter paper (Brandel, Gaithersburg, Md., USA) utilizing a Brandel harvester. Bound [35 S]GTPγS was quantified using a TriCarb-2900TR scintillation counter (Packard, Downers Grove, Ill., USA) following addition of 4 mL ReadySafe scintillation fluid (Beckman Coulter, Indianapolis, Ind., USA). […] For each compound, curve fitting was done in Microcal Origin 17.0 software using logistic sigmoidal fit, to determine EC50 and maximal percent stimulation, which in turn was normalized to the maximal percent stimulation of the test full agonist compound U69,593 to determine % efficacy. β2-Arrestin Experiments were conducted using the PathHunter Detection Kit obtained from DiscoverX. Cells stably expressing kappa, mu or delta opioid receptor constructs (PathHunter U2OS hOPRK1, CHO-K1 rOPRM1 and CHO-K1 OPRD1 β-arrestin cell line, DiscoverX, Fremont, Calif., USA) were plated in 96- or 384-well plates. Cells were stimulated with the compounds for 90 minutes at 37° C. To test inhibition, all samples were incubated with 100 nM U69,593 as well as the appropriate concentration of compound. Cells were then incubated for 60 minutes in the presence of galoctosidase substrate, yielding chemiluminescent product. Chemiluminescence was measured using a Synergy Neo microplate reader (BioTek, Winooski, Vt., USA). Antagonism assays were done in the same manner, in the presence of 300 nM U69,593, 1 μM DAMGO or 1 μM DPDPE for KOP-R, MOP-R or DOP-R assays, respectively.

[4] = read-out: β-arrestin coupling % efficacy at 10 μM
[5] = 1.0 nM [3H]U69,593, 60 minutes at 30° C., read-out: Binding IC50

Row | SMILES | IC50 [1] | Emax at 10 µM [2, 4] | EC50 [3] | Emax [3] | IC50 [1, 5] | β-arrestin coupling % efficacy ([2]; maximal, normalized to U69,593, No stim = no stimulation at highest dose tested, 10,000 nM) | EC50 ([3]; 20 minutes at 30° C., read-out: GTPγS stimulation EC50) | EC50 [2] | Emax at 10 µM ([2]; read-out: β-arrestin coupling % efficacy)
1 | O=C(Cc1ccc(Cl)c(Cl)c1)N1CCN(CC2CCC2)[C@@H]2COC[C@H](N3CCCC3)[C@H]21 (racemic) [Example 5A55] | 57 nM | 40% | 21 nM | 67% | – | – | – | – | –
2 | Cc1ccc(CC(=O)N2CCN[C@@H]3COC[C@H](N4CCCC4)[C@H]32)cc1Cl (racemic) [Example 5A57] | 42 nM | 20% | 62 nM | 98% | – | – | – | – | –
3 | Cc1cc(CC(=O)N2CCN[C@@H]3COC[C@H](N4CCCC4)[C@H]32)ccc1Cl (racemic) [Example 5A58] | – | 20% | 261 nM | 161% | 116 nM | – | – | – | –
4 | CCN(CC)[C@H]1COC[C@H]2NCCN(C(=O)Cc3ccc(Cl)c(Cl)c3)[C@@H]21 (racemic) [Example 5A64] | – | – | 2120 nM | 68% | 1920 nM | No stim | – | – | –
5 | O=C(Cc1ccc(Cl)c(F)c1)N1CCN[C@@H]2COC[C@H](N3CCCC3)[C@H]21 (racemic) [Example 5A65] | 68 nM | 20% | – | 121% | – | – | 136 nM | – | –
6 | O=C(Cc1ccc(Cl)cc1)N1CCN[C@@H]2COC[C@H](N3CCCC3)[C@H]21 (racemic) [Example 5A66] | – | 20% | 566 nM | 140% | 456 nM | – | – | – | –
7 | COC(=O)N1CCN(C(=O)Cc2ccc(Cl)c(Cl)c2)[C@H]2[C@H]1COC[C@@H]2N1CCCC1 (racemic) [Example 5A67] | 41 nM | – | 12 nM | 85% | – | – | – | 5200 nM | 85%
8 | O=C(Cc1ccc(Cl)c(Cl)c1)N1CCN(CC2CC2)[C@@H]2COC[C@H](N3CCCC3)[C@H]21 (racemic) [Example 5A70] | 71 nM | 50% | 19 nM | 90% | – | – | – | – | –
9 | CCCN1CCN(C(=O)Cc2ccc(Cl)c(Cl)c2)[C@H]2[C@H]1COC[C@@H]2N1CCCC1 (racemic) [Example 5A72] | 26 nM | 50% | 12 nM | 111% | – | – | – | – | –
10 | O=C(Cc1cccc(Cl)c1)N1CCN[C@@H]2COC[C@H](N3CCCC3)[C@H]21 (single isomer, unassigned) [Example 5A24A] | – | 0% | 384 nM | 115% | 463 nM | – | – | – | –
11 | O=C(Cc1cccc(Cl)c1)N1CCN[C@H]2COC[C@@H](N3CCCC3)[C@@H]21 (single isomer, unassigned) [Example 5A24B] | – | 0% | 1370 nM | 102% | 1130 nM | – | – | – | –
12 | CS(=O)(=O)N1CCN(C(=O)Cc2ccc(Cl)c(Cl)c2)[C@H]2[C@H]1COC[C@@H]2N1CCCC1 (single isomer, unassigned) [Example 5A44A] | 5.4 nM | 80% | 3.4 nM | 119% | – | – | – | – | –
13 | CS(=O)(=O)N1CCN(C(=O)Cc2ccc(Cl)c(Cl)c2)[C@H]2[C@H](N3CCCC3)COC[C@@H]21 (single isomer, unassigned) [Example 5A44B] | 18 nM | 70% | 4.6 nM | 105% | – | – | – | – | –
14 | O=C(Cc1ccc(Cl)c(Cl)c1)N1CCN(S(=O)(=O)C2CC2)[C@@H]2COC[C@H](N3CCCC3)[C@H]21 (single isomer, unassigned) [Example 5A52A] | 3.6 nM | 60% | 1.7 nM | 119% | – | – | – | – | –
15 | O=C(Cc1ccc(Cl)c(Cl)c1)N1CCN(S(=O)(=O)C2CC2)[C@H]2COC[C@@H](N3CCCC3)[C@@H]21 (single isomer, unassigned) [Example 5A52B] | 27 nM | 25% | 18 nM | 96% | – | – | – | – | –
16 | O=C(Cc1ccc(Cl)c(Cl)c1)N1CCN(Cc2ccccc2)[C@@H]2COC[C@H](N3CCCC3)[C@H]21 (single isomer, unassigned) [Example 5A53A] | 108 nM | 80% | 18 nM | 80% | – | – | – | – | –
